These results are taken from PMC9124866, “Structure-Activity Relationships of Dopamine Transporter Pharmacological Chaperones” (Frontiers in Cellular Neuroscience, 2022).

A word on the Emax: it is the maximal effect, on the per cent scale that the assay sets.

Sequence of YFP-HA-βlac-DAT (Q01959 1-171 limits assumed): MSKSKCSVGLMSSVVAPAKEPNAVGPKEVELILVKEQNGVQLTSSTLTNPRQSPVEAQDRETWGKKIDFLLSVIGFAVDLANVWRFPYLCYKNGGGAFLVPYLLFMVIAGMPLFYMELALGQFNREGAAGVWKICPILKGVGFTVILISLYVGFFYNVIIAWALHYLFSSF
Sequence of YFP-HA-βlac-DAT (Q01959 237-620 limits assumed): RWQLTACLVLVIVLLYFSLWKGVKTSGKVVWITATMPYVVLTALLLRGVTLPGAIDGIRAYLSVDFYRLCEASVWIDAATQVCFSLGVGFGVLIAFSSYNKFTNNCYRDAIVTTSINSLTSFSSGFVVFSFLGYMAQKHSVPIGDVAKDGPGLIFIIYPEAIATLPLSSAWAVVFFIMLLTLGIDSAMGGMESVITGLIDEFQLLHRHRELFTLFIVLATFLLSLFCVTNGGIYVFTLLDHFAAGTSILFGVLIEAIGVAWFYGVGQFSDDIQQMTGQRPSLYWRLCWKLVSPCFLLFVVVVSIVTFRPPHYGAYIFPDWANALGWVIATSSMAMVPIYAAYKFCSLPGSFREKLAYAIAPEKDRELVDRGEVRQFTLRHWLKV

The first assay addresses YFP-HA-βlac-DAT (Homo sapiens, UniProt Q01959). Nature of the assay: β-lactamase (βlac) surface expression assay. Conditions: HEK293, HEK cells expressing YFP-HA-βlac-DAT, overnight (16 h) incubation, up to 100 μM, normalized to vehicle; assumed effective EMax; read-out: EMax (%), WT DAT surface expression. In kind it is cell-based. As to the method:
The βlac surface expression assay was performed by following the method outlined in [Lam et al. (2013)] and [Beerepoot et al. (2015], [2016)]. The assay substrate nitrocefin (BD biosciences) was dissolved in dimethyl sulfoxide (DMSO) at a concentration of 10 mM and frozen at −80°C. Immediately before use, it was thawed and diluted to a final concentration of 100 μM in phosphate buffered saline (PBS). Cells (1 × 10^5/well) were seeded into a poly-D-lysine-coated 48-well plate and incubated for 24 h, prior to drug treatment. Drugs were added to individual wells at varying concentrations and incubated for 16 h. Subsequently, the media was aspirated, and the cells were washed twice with PBS. After removal of the final PBS wash, 200 μL of the nitrocefin solution was added to each well and the absorbance was immediately read. The EPOCH microplate spectrophotometer (BioTek) was used to measure absorbance (486 nm) for each well every minute for 30 min. The rate of reaction (slope of the curve) was used as the readout for the assay ([Beerepoot et al., 2015]). To determine suitable concentration ranges for each drug, they were dissolved in PBS or DMSO at the highest concentration possible. From here, the solutions were serial diluted 1/10 to yield 8 different concentrations. βLAC cells were then treated with the varying drug concentrations and cell viability was recorded using light microscopy. For additional measure, nitrocefin was added and the absorbance was read. For certain cases, Trypan Blue was used to quantitatively differentiate increased cell death from reduced cell division. […] Five or six doses were generally used in subsequent dosing experiments, starting at the highest non-toxic concentration.
Data analysis was performed using GraphPad Prism (GraphPad Software, La Jolla, CA). Linear regression analysis was performed on βLAC time points to determine the slope, thus the rate of reaction, for comparison. Furthermore, the slope was also used to determine the degree of dopamine uptake in the dopamine uptake assays. Non-linear regression, fitting to the log(agonist) vs. response and log(inhibitor) vs. response model curve, was used to determine dose-response relationships of surface expression and uptake assays, respectively. One-way ANOVA with Dunnett’s post hoc-test was used for the β-lactamase assay and one-way ANOVA with Bonferroni correction was used for western blot analysis.
Among these were RTI-1, RTI-2, RTI-5, RTI-6, RTI-11, RTI-20, and PAL-1007. […] The EMax values of all the analyzed drugs are included in Figure 1.
The pharmacological chaperone ability of the 15 ibogaine and tryptamine analogs, shown in Figure 3, were measured using the βlac surface expression assay. HEK cells expressing YFP-HA-βlac-DAT were incubated overnight with these compounds at concentrations varying by log and half-log dilutions, starting at 100 μM final concentration. […] Furthermore, it was important to determine whether the β-carboline analogs could also elicit a chaperone effect because they are not classified as DAT ligands ([Cao et al., 2007]). […] Removing the nitrogen from the ring reduced efficacy as observed with frovatriptan (103 ± 1.4%). […] Evodiamine (54 ± 1.7%) had no chaperone ability and caused a substantial reduction in the surface expression of DAT. Dose-response curves were generated to assess the pharmacological chaperone potencies of select compounds (Figure 4).
Take `COc1ccc2[nH]c3c(c2c1)CCN(C)CC3` [Ibogainealog, ibogainealog]: the maximal effect (Emax) is 169 ± 13.7%.

In the case of `CN1CCc2[nH]c3ccccc3c2CC1` [Ibogaminalog], the Emax was 175 ± 12.9%. On the same count and under the same terms, the figure for `CN1CCc2[nH]c3ccc(O)cc3c2CC1` [Noribogainalog, noribogainalog] is 185 ± 17.9%; for `CC(NC1CC1)C(=O)c1cccc(Cl)c1` (stereo not shown) [PAL-433] it is 93 ± 10.4%.

For `CC(NC1CC1)C(=O)c1cccc(Br)c1` (stereo not shown) [PAL-586], the Emax was 93 ± 5.8%.

With `CCCN(CCC)CCc1c[nH]c2ccc(OC)cc12` [PAL-709], the Emax came out at 97 ± 7.2%. Still for that read-out and setting: for `COc1cccc(C(=O)C(C)NC2CC2)c1` (stereo not shown) [PAL-789] the value was 93 ± 10.6%; for `CC(NC1CC1)C(=O)c1ccc(F)c(Cl)c1` (stereo not shown) [PAL-819], 90 ± 5%. On the same count and under the same terms, the figure for `CC(NC1CCC1)C(=O)c1ccccc1` (stereo not shown) [PAL-933] is 114 ± 2.3%; for `Cc1ccc(C(=O)C(C)N(C)Cc2ccccc2)cc1` (stereo not shown) [PAL-945] it is 85%.

Take `CC(NC1CCC1)C(=O)c1cccc(Cl)c1` (stereo not shown) [PAL-1007]: the maximum response (Emax) came to 136 ± 9.1%. Same read-out and setting: for `CC(NC1CCC1)C(=O)c1cccc(F)c1` (stereo not shown) [PAL-1008] the value was 96 ± 7.3%; for `CNC(C)C(=O)c1cccc(C)c1` (stereo not shown) [PAL-1101], 105 ± 3.6%; for `C[C@@H](NC1CCC1)C(=O)c1cccc(Cl)c1` [PAL-1132], 110%.

With `C[C@H](NC1CCC1)C(=O)c1cccc(Cl)c1` [PAL-1134], the maximal effect (Emax) turned out to be 98%. Still for that read-out and setting: the figure for `CC(NC1CC1)C(=O)c1cccc(C(F)(F)F)c1` (stereo not shown) [PAL-1178] is 92 ± 1.2%; for `Cc1ccc(C(=O)C(C)N)cc1` (stereo not shown) [PAL-1270] it is 104 ± 2.3%. Still for that read-out and setting: for `CC(NC1CCC1)C(=O)c1c[nH]c2ccccc12` (stereo not shown) [PAL-1407] the value was 98 ± 3.9%; for `Cc1cccc(C(=O)C(C)NC2CCC2)c1` (stereo not shown) [PAL-1411], 110 ± 4.5%; for `CC(NC1CCC1)C(=O)c1ccc2c(c1)OCO2` (stereo not shown) [PAL-1414], 102%.

`CC(C)N(CCc1c[nH]c2cccc(O)c12)C(C)C` [PAL-1416]: the maximal response (Emax) is 127 ± 6.6%. On the same count and under the same terms, for `CC(NC(C)(C)C)C(=O)c1ccccc1` (stereo not shown) [PAL-1463] the value was 117%; for `COc1cccc(C(=O)C(C)NC(C)(C)C)c1` (stereo not shown) [PAL-1465], 91%. On to `CC(NC(C)(C)C)C(=O)c1cccc(F)c1` (stereo not shown) [PAL-1466], for which the Emax came out at 100%. The same measure, in the same setting: the figure for `CC(C)NC(C)C(=O)c1cccc(Cl)c1` (stereo not shown) [PAL-1467] is 100 ± 4%; for `CC(Cc1cccc(Cl)c1)NC(C)(C)C` (stereo not shown) [PAL-1468] it is 117%. Same read-out and setting: for `CC(NC(C)(C)C)C(=O)c1cccc(Br)c1` (stereo not shown) [RTI-1] the value was 161 ± 2.7%. On the same count and under the same terms, the figure for `CC(NC(C)(C)C)C(=O)c1ccc(Br)cc1` (stereo not shown) [RTI-2] is 127 ± 2.6%; for `CC(NC(C)(C)C)C(=O)c1ccc(Cl)cc1` (stereo not shown) [RTI-3] it is 113 ± 6.2%. Regarding `CC(NC(C)(C)C)C(=O)c1ccc(Cl)c(Cl)c1` (stereo not shown) [RTI-4], the maximal effect (Emax) turned out to be 110 ± 5.7%. Same read-out and setting: for `Cc1cccc(C(=O)C(C)NC(C)(C)C)c1` (stereo not shown) [RTI-6] the value was 134 ± 9.6%; for `CC(C(=O)c1cccc(Cl)c1)N1CCCCC1` (stereo not shown) [RTI-7], 102 ± 3.9%; for `CC(C(=O)c1cccc(Cl)c1)N(C)C` (stereo not shown) [RTI-8], 107 ± 6.3%. In the case of `CC(C(=O)c1cccc(Cl)c1)N(C)C(C)(C)C` (stereo not shown) [RTI-9], the maximal effect (Emax) is 87 ± 14.6%. As for `CCC(NC(C)(C)C)C(=O)c1cccc(Cl)c1` (stereo not shown) [RTI-11], the maximum response (Emax) was 131 ± 3.7%.

For the molecule `CC(NC(C)(C)C)C(=O)c1ccc(F)c(F)c1` (stereo not shown) [RTI-13], the maximal response (Emax) turned out to be 99 ± 4.3%. On the same count and under the same terms, for `CC(NC(C)(C)C)C(=O)c1cc(Cl)cc(Cl)c1` (stereo not shown) [RTI-17] the value was 78 ± 2.8%; for `CC1NC(C)(C)COC1(O)c1cc(F)cc(F)c1` (stereo not shown) [RTI-18], 122%; for `CC1NC(C)(C)COC1(O)c1cc(Cl)cc(Cl)c1` (stereo not shown) [RTI-21], 103 ± 3.7%. As to `COc1ccc2c3c([nH]c2c1)CCN(C)CC3` [Tabernanthalog, tabernanthalog], the Emax is 179 ± 9.1%.

Regarding `NCCc1c[nH]c2ccccc12` [Tryptamine, tryptamine, reference compound], the Emax was found to be 104 ± 1.6%.

The same assay, now with this note: HEK293, HEK cells expressing YFP-HA-βlac-DAT, overnight incubation, normalized to vehicle; read-out: EMax (%), WT DAT surface expression.
In the case of `CN[C@@H](C)[C@H](O)c1ccccc1` [Ephedrine, ephedrine, reference compound], the Emax amounted to 128 ± 4.7%.

The assay is the same for the next values; noted with them: HEK293, read-out: EMax (%), WT DAT surface expression, HEK cells expressing YFP-HA-βlac-DAT, overnight (16 h) incubation, up to 100 μM, normalized to vehicle; assumed effective EMax.
For the molecule `CC1NC(C)(C)COC1(O)c1cccc(Cl)c1` (stereo not shown) [6-Hydroxybupropion, 6-hydroxybupropion, reference compound], the Emax amounted to 148 ± 5.4%.

Take `CN1CCc2[nH]c3ccc(F)cc3c2CC1` [Fluorogainalog, fluorogainalog]: the Emax came out at 219 ± 29%. The same measure, in the same setting: for `CN[C@@H]1CCc2[nH]c3ccc(C(N)=O)cc3c2C1` [Frovatriptan, frovatriptan, reference compound] the value was 103 ± 1.4%. Same read-out and setting: for `CC[C@H]1C[C@@H]2C[C@H]3c4[nH]c5ccccc5c4CCN(C2)[C@@H]13` [Ibogamine, reference compound] the value was 202 ± 7.1%. In the case of `COc1ccc2[nH]c3c(c2c1)CCNC3` [Pinoline, pinoline, reference compound], the maximal effect (Emax) worked out at 141 ± 4.4%. `CC(CNC(C)(C)C)C(=O)c1cccc(Cl)c1` (stereo not shown) [RTI-10]: the maximal effect (Emax) was 36 ± 1.4%.

Still in this assay, the particulars now being: HEK cells expressing YFP-HA-βlac-DAT, overnight (16 h) incubation, up to 100 μM, normalized to vehicle; assumed effective EMax.
With evodiamine [reference compound], the “EMax (%), WT DAT surface expression” value is given as 54 ± 1.7%.
